The results in this text go back to patent publication US11084808B2, “Oxopicolinamide derivative, preparation method therefor and pharmaceutical use thereof” (Jiangsu Hengrui Medicine Co., Ltd., priority 2016, dated 2021).

Bounds are passed on as bounds.

One series concerns human blood. The experiment in a line: In vitro anticoagulant effect on human blood (APTT, CT2). Format: biochemical. The conditions noted are these: Table 2; concentration of the compound corresponding to 2 times the APTT of the blank control; human plasma. The protocol:
Test Example 2: Determination of In Vitro Anticoagulant Effect of the Compounds of the Present Invention on Human Blood
1. Experimental Materials
Plasma: Human blood was collected in blood collection tubes containing no anticoagulant, and then 3.8% sodium citrate (volume ratio 1:9) was added. The tubes were centrifuged at 2500 rpm for 10 minutes at room temperature, and then the plasma was collected and stored at −80° C.:
Reagents: APTT reagent (Activated partial thromboplastin time assay kit, SIEMENS, Art. No. B4218-1), calcium chloride solution;
Instrument: Coagulation instrument (SYSMEX, CA-500).
The divided plasma was melted at room temperature and mixed well. 10000 μM the test compound dissolved in 100% DMSO was diluted to 3000, 300, 200, 150, 75, 30, 10, 3, 0.3 μM with 100% DMSO, and the blank was 100% DMSO. The reagent, plasma, and compound were placed in corresponding positions in the coagulation instrument, and APTT detection of the compound was carried out.
Curve fitting was carried out by graphpad and CT2 was calculated, i.e., the concentration of the compound corresponding to 2 times the APTT of the blank control.
`[2H]C([2H])([2H])Oc1cn([C@@H](Cc2ccccc2)C(=O)Nc2ccc(C(=O)O)cc2)c(=O)cc1-c1cc(Cl)ccc1C(C)=O` [Example 179, 4-[[(2S)-2-[4-(2-acetyl-5-chloro-phenyl)-2-oxo-5-(trideuteromethoxy)-1-pyridyl]-3-phenyl-propionyl]amino]benzoic acid]: the “CT2 (compound concentration doubling APTT)” value (“CT2” for short) amounted to 3.3 µM. On the same count and under the same terms, under `COc1cn([C@H](Cc2ccccc2)C(=O)Nc2ccc(C(=O)O)cc2)c(=O)cc1-c1cc(Cl)ccc1C(C)=O` [Example 6, (R)-4-(2-(4-(2-acetyl-5-chlorophenyl)-5-methoxy-2-oxopyridin-1(2H)-yl)-3-phenylpropanamido)benzoic acid] stands >10000 µM; under `COc1cn([C@@H](Cc2cnn(C)c2)C(=O)Nc2ccc(C(=O)O)cc2)c(=O)cc1-c1cc(Cl)ccc1C(C)=O` [Example 105, (S)-4-(2-(4-(2-acetyl-5-chlorophenyl)-5-methoxy-2-oxopyridin-1(2H)-yl)-3-(1-methyl-1H-pyrazol-4-yl)propanamido)benzoic acid], 6.9 µM.

For the molecule `COc1cn([C@@H](Cc2ccccn2)C(=O)Nc2ccc(C(=O)O)cc2)c(=O)cc1-c1cc(Cl)ccc1C(C)=O` [Example 80, (S)-4(2-(4-(2-acetyl-5-chlorophenyl)-5-methoxy-2-oxopyridin-1(2H)-yl)-3-(pyridin-2-yl)propanamido)benzoic acid], the “CT2” value was 7.9 µM. The same measure, in the same setting: under `[2H]C([2H])([2H])Oc1cn([C@H](Cc2ccccc2)C(=O)Nc2ccc(C(=O)O)cc2)c(=O)cc1-c1cc(Cl)ccc1C(C)=O` [Example 180, 4-[[(2R)-2-[4-(2-acetyl-5-chloro-phenyl)-2-oxo-5-(trideuteromethoxy)-1-pyridyl]-3-phenyl-propionyl]amino]benzoic acid] stands >10000 µM. On the same count and under the same terms, in the case of `COc1cn([C@H](Cc2cnn(C)c2)C(=O)Nc2ccc(C(=O)O)cc2)c(=O)cc1-c1cc(Cl)ccc1C(C)=O` [Example 104, (R)-4-(2-(4-(2-acetyl-5-chlorophenyl)-5-methoxy-2-oxopyridin-1(2H)-yl)-3-(1-methyl-1H-pyrazol-4-yl)propanamido)benzoic acid] it was >10000 µM; in that of `COc1cn([C@@H](Cc2ccn(C3CC3)n2)C(=O)Nc2ccc(C(=O)O)cc2)c(=O)cc1-c1cc(Cl)ccc1C(C)=O` [Example 94, (S)-4-(2-(4-(2-acetyl-5-chlorophenyl)-5-methoxy-2-oxopyridin-1(2H)-yl)-3-(1-cyclopropyl-1H-pyrazol-3-yl)propanamido)benzoic acid], 2.2 µM.

`COc1cn([C@H](CCOC(C)(C)C)C(=O)Nc2ccc(C(=O)O)cc2)c(=O)cc1-c1cc(Cl)ccc1C(C)=O` [Example 112, (R)-4-(2-(4-(2-acetyl-5-chlorophenyl)-5-methoxy-2-oxopyridin-(2H)-yl)-4-(tert-butoxy)butanamido)benzoic acid]: the “CT2” value was >10000 µM. On to `COc1cn(C(Cc2ccn(C3CC3)n2)C(=O)Nc2ccc3nn(C)cc3c2)c(=O)cc1-c1cc(Cl)ccc1C(C)=O` (stereo not drawn) [Example 97, 2-(4-(2-acetyl-5-chlorophenyl)-5-methoxy-2-oxopyridin-(2H)-yl)-3-(1-cyclopropyl-1H-pyrazol-3-yl)-N-(2-methyl-2H-indazol-5-yl)propanamide], for which the “CT2” value came to 5.4 µM. Same read-out and setting: in the case of `[2H]C([2H])([2H])Oc1cn([C@H](CCOC(C)(C)C)C(=O)Nc2ccc(C(=O)O)cc2)c(=O)cc1-c1cc(Cl)ccc1C(=O)CC` [Example 178, 4-[[(2R)-4-tert-butoxy-2-[4-(5-chloro-2-propionyl-phenyl)-2-oxo-5-(trideuteromethoxy)-1-pyridyl]butyryl]amino]benzoic acid] it was >10000 µM.

Tested on in a further series: not listed separately
In words: Pharmacokinetics assay in rats after intragastrical administration. The format is in vivo, Sprague-Dawley (SD) rats. To be noted: intragastric, 2 mg/kg. The source says: Test Example 3. Pharmacokinetics Assay of the Compounds of the Present Invention
Rats were used as test animals. […] The pharmacokinetic behavior of the compounds of the present invention was studied and evaluated in rats.
56 healthy adult Sprague-Dawley (SD) rats, half male and half female, were purchased from SINO-BRITSH SIPPR/BK LAB. ANIMAL LTD., CO, with License No.: SCXK (Shanghai) 2008-0016.
2.3 Preparation of the Test Compounds
A certain amount of the test compound was weighed, and added with 5% by volume of DMSO, 5% by volume of Tween 80 and 90% normal saline to prepare a 0.2 mg/mL colorless, clear and transparent solution.
After an overnight fast, SD rats were intragastrically administered at a dose of 2.0 mg/kg and an administration volume of 10.0 mL/kg.
Example 111, Example 114, Example 160. Example 171 and Comparative Example 1. Blood (0.2 mL) was taken from the orbital sinus before administration and at 0.5, 1.0, 2.0, 4.0, 6.0, 8.0, 11.0 and 24.0 hours after administration. […]
The content of the test compound in the plasma of rats after intragastric administration of different concentrations of the drug was determined: 25 μL of rat plasma at each time after administration was taken and added with 30 μL (100 ng/mL) of the internal standard solution of camptothecin and 200 μL of acetonitrile, shaken vertically for 5 minutes, and centrifuged for 10 minutes (4000 rpm). […]
For `COc1cn([C@@H](Cc2cccnc2)C(=O)Nc2ccc(C(=O)O)cc2)c(=O)cc1-c1cc(Cl)ccc1C(C)=O` [Example 84, (S)-4-(2-(4-(2-acetyl-5-chlorophenyl)-5-methoxy-2-oxopyridin-1(2H)-yl)-3-(pyridin-3-yl)propanamido)benzoic acid], the “AUC difference versus Comparative Example 1” value amounted to 7.5 times and the “Cmax difference versus Comparative Example 1” value was 6.9 times.
